Tested on: patients with Alzheimer's disease
Test: Phase 3 study AB09004: change from baseline in ADAS-Cog score
Format: in vivo, human
Set-up: key to δLSM (ADAS-Cog) / 8LSM (ADAS-Cog): LSM diff. of ADAS-Cog change from baseline; negative = improvement
Conditions: for ALSM (ADAS-Cog) / 8LSM (ADAS-Cog) / ΔLSM (ADAS-Cog) / δLSM (ADAS-Cog): 4.5 mg/kg/day; for ALSM (ADAS-Cog) / ΔLSM (ADAS-Cog): vs placebo, week 24; for 8LSM (ADAS-Cog) / δLSM (ADAS-Cog): week 24 from baseline
Protocol: An international, multicenter, randomized, double-blind, placebo-controlled phase 3 study was conducted with the objective to evaluate oral masitinib at a dose of 4.5 mg/kg/day as a treatment for Alzheimer's disease.
Eligible patients, aged at least 50 years, were diagnosed with dementia of Alzheimer's type according to Diagnostic and Statistical Manual of Mental Disorders (DSM)-IV criteria, and probable Alzheimer's disease according to NINCDS-ADRDA (National Institute of Neurological and Communicative Diseases and Stroke/Alzheimer's Disease and Related Disorders Association) criteria. […] Patients with any other cause of dementia not due to Alzheimer's disease were ineligible for the study.
Eligible patients were treated during 24 weeks with masitinib at a dose of 4.5 mg/kg/day (mg per kilo body weight per day) or with placebo. Treatment was administered as add-on therapy in patients who had been treated for a minimum of 6 months with a stable dose of cholinesterase inhibitors (donepezil, rivastigmine or galantamine) and/or memantine, with no changes foreseen in therapy throughout the study.
Primary analysis was based on the co-primary endpoints of: • Change from baseline in Alzheimer's Disease Cooperative Study Activities of Daily Living (ADCS-ADL) score. The ADCS-ADL assesses the competence of patients with Alzheimer's disease in basic and instrumental activities of daily living (ADLs). • Change from baseline in Alzheimer's Disease Assessment Scale-Cognitive Subscale (ADAS-Cog). The ADAS-Cog assesses cognition and memory.
Treatment effect (masitinib versus placebo) was assessed based on absolute change from baseline to week 24 by using an analysis of covariance model (ANCOVA linear model) with the following factors: treatment, baseline value, and stratification criteria of baseline MMSE score, age, ADCS-ADL total score, and ADAS-Cog total score.
The ADAS-Cog version used in study AB09004 included 11 items regrouped as follows: language (items 1, 2, 3), praxia and gnosia (items 5, 7, 8, 9), memory (items 4, 10, 11), orientation (item 6). The items range either from 0 to 5 (items 1, 2, 3, 5, 7, 8, 9, 11), or from 0 to 8 (item 6), or from 0 to 10 (item 4), or from 0 to 12 (item 10). The global score, which is the sum of the 11 items, ranges from 0 to 70, with higher scores indicating greater cognitive impairment. Results are expressed as a least-squares means difference (δLSM) of absolute change in ADAS-Cog score from baseline; that is to say, the change over time in the ADAS-Cog score, or in other words the difference between the ADAS-Cog score at baseline and the ADAS-Cog score after treatment with masitinib or with placebo. A decrease in ADAS-Cog score with respect to baseline (i.e., a negative δLSM) indicates an improvement in the patient and therefore disease stability, whereas an increase in ADAS-Cog score with respect to baseline (i.e., a positive δLSM) indicates a worsening in the patient and therefore disease progression. Treatment-effect is reported as the difference between treatment-arms (ΔLSM) (calculated as δLSM[masitinib] minus δLSM[placebo]), with a negative value indicating a beneficial effect of treatment with masitinib as compared with placebo. In a scenario where both treatment-arms show worsening in cognitive function (i.e., a positive δLSM), then a negative ΔLSM indicates a beneficial treatment effect for masitinib, i.e., the rate of decline in masitinib treated patients is slower than that of patients from the placebo-arm. […]

Cc1ccc(NC(=O)c2ccc(CN3CCN(C)CC3)cc2)cc1Nc1nc(-c2cccnc2)cs1 [masitinib, 4-(4-methylpiperazin-1-ylmethyl)-N-[4-methyl-3-(4-pyridin-3ylthiazol-2-ylamino)phenyl]benzamide]
ALSM (ADAS-Cog) (Baseline ADAS-Cog >32): −1.6044 points
8LSM (ADAS-Cog) (Baseline ADAS-Cog >32): −7.2739
ALSM (ADAS-Cog) (Baseline ADAS-Cog >40): −0.2351 points
8LSM (ADAS-Cog) (Baseline ADAS-Cog >40): −4.9348
ALSM (ADAS-Cog) (Baseline ADAS-Cog ≤32): −2.1011 points
8LSM (ADAS-Cog) (Baseline ADAS-Cog ≤32): −1.5266
ALSM (ADAS-Cog) (Baseline ADAS-Cog ≤40): −2.3299 points
8LSM (ADAS-Cog) (Baseline ADAS-Cog ≤40): −1.4472
ΔLSM (ADAS-Cog) (Diagnosis >2 years): −1.3581 points
δLSM (ADAS-Cog) (Diagnosis >2 years): −1.2197
ΔLSM (ADAS-Cog) (Diagnosis >3 years): −0.3770 points
δLSM (ADAS-Cog) (Diagnosis >3 years): −0.7048
ΔLSM (ADAS-Cog) (Diagnosis >4 years): −1.3426 points
δLSM (ADAS-Cog) (Diagnosis >4 years): −1.2607
ΔLSM (ADAS-Cog) (Diagnosis >5 years): −1.4470 points
δLSM (ADAS-Cog) (Diagnosis >5 years): −1.4756
ΔLSM (ADAS-Cog) (Diagnosis ≤2 years): −2.7754 points
δLSM (ADAS-Cog) (Diagnosis ≤2 years): −1.6958
ΔLSM (ADAS-Cog) (Diagnosis ≤3 years): −2.8700 points
δLSM (ADAS-Cog) (Diagnosis ≤3 years): −1.7671
ΔLSM (ADAS-Cog) (Diagnosis ≤4 years): −2.3435 points
δLSM (ADAS-Cog) (Diagnosis ≤4 years): −1.4948
ΔLSM (ADAS-Cog) (Diagnosis ≤5 years): −2.2599 points
δLSM (ADAS-Cog) (Diagnosis ≤5 years): −1.4394
ΔLSM (ADAS-Cog) (MMSE <13): −0.4996 points
δLSM (ADAS-Cog) (MMSE <13): 2.1702
ΔLSM (ADAS-Cog) (MMSE <14): 1.0497 points
δLSM (ADAS-Cog) (MMSE <14): 3.6165
ΔLSM (ADAS-Cog) (MMSE <15): −1.0976 points
δLSM (ADAS-Cog) (MMSE <15): 1.5482
ΔLSM (ADAS-Cog) (MMSE <16): −1.0624 points
δLSM (ADAS-Cog) (MMSE <16): 0.8538
ΔLSM (ADAS-Cog) (MMSE <17): −1.0127 points
δLSM (ADAS-Cog) (MMSE <17): 0.9251
ΔLSM (ADAS-Cog) (MMSE [12-20]): −1.7387 points
δLSM (ADAS-Cog) (MMSE [12-20]): −1.0350
ΔLSM (ADAS-Cog) (MMSE [25-21]): −2.8929 points
δLSM (ADAS-Cog) (MMSE [25-21]): −2.4719
ΔLSM (ADAS-Cog) (MMSE ≥13): −2.1488 points
δLSM (ADAS-Cog) (MMSE ≥13): −1.4717
ΔLSM (ADAS-Cog) (MMSE ≥14): −2.4192 points
δLSM (ADAS-Cog) (MMSE ≥14): −1.8028
ΔLSM (ADAS-Cog) (MMSE ≥15): −2.2577 points
δLSM (ADAS-Cog) (MMSE ≥15): −1.8834
ΔLSM (ADAS-Cog) (MMSE ≥16): −2.2907 points
δLSM (ADAS-Cog) (MMSE ≥16): −2.0435
ΔLSM (ADAS-Cog) (MMSE ≥17): −2.4915 points
δLSM (ADAS-Cog) (MMSE ≥17): −2.3004
ΔLSM (ADAS-Cog) (Overall Population): −2.1485 points
δLSM (ADAS-Cog) (Overall Population): −1.4550
Δsub/Δoverall (ratio of ΔLSM (ADAS-Cog) at W24, Diagnosis ≤2 years vs overall study population): 1.29
Δsub/Δoverall (ratio of ΔLSM (ADAS-Cog) at W24, Diagnosis ≤3 years vs overall study population): 1.34
Δsub/Δoverall (ratio of ΔLSM (ADAS-Cog) at W24, Diagnosis ≤4 years vs overall study population): 1.09
Δsub/Δoverall (ratio of ΔLSM (ADAS-Cog) at W24, Diagnosis ≤5 years vs overall study population): 1.05
Δsub/Δoverall (ratio of ΔLSM (ADAS-Cog) at W24, MMSE [20-12] vs overall study population): 0.81
Δsub/Δoverall (ratio of ΔLSM (ADAS-Cog) at W24, MMSE [25-21] vs overall study population): 1.35
Δsub/Δoverall (percentage improvement) (ΔLSM (ADAS-Cog) at W24, Diagnosis ≤2 years vs overall study population): 29%
Δsub/Δoverall (percentage improvement) (ΔLSM (ADAS-Cog) at W24, Diagnosis ≤2 years vs overall study population, listed as M4.5): (29%)
Δsub/Δoverall (percentage improvement) (ΔLSM (ADAS-Cog) at W24, Diagnosis ≤3 years vs overall study population): 34%
Δsub/Δoverall (percentage improvement) (ΔLSM (ADAS-Cog) at W24, Diagnosis ≤3 years vs overall study population, listed as M4.5): (34%)
Δsub/Δoverall (percentage improvement) (ΔLSM (ADAS-Cog) at W24, Diagnosis ≤4 years vs overall study population): (9%)
Δsub/Δoverall (percentage improvement) (ΔLSM (ADAS-Cog) at W24, Diagnosis ≤5 years vs overall study population): (5%)
Δsub/Δoverall (percentage improvement) (ΔLSM (ADAS-Cog) at W24, MMSE [20-12] vs overall study population): (−19%)
Δsub/Δoverall (percentage improvement) (ΔLSM (ADAS-Cog) at W24, MMSE [25-21] vs overall study population): 35%
Δsub/Δoverall (percentage improvement) (ΔLSM (ADAS-Cog) at W24, MMSE [25-21] vs overall study population, listed as M4.5): (35%)
improved benefit relative to complementary subpopulation (ΔLSM (ADAS-Cog), baseline MMSE 25 to 21 relative to MMSE 20 to 12, printed as 'between 99% to 66%'): 66%

From patent publication US20240058328A1, “MASITINIB FOR THE TREATMENT OF ALZHEIMER'S DISEASE” (AB SCIENCE, priority 2020, published 2024)
